Source: ChEMBL document CHEMBL3727344, “2-fluoro-benzenesulfonamide compounds as RAF kinase modulators” (2014)

What was measured:
[1] = molecular target: RAF proto-oncogene serine/threonine-protein kinase (Homo sapiens, UniProt P04049); test: Inhibition of c-Raf 1 (unknown origin)
[2] = molecular target: Serine/threonine-protein kinase B-raf (Homo sapiens, UniProt P15056, V600E); test: Inhibition of B-Raf V600E mutant (unknown origin)
[3] = molecular target: T1, Serine/threonine-protein kinase A-Raf (Homo sapiens, UniProt P10398); test: Inhibition of A-Raf (unknown origin)
T1 sequence (P10398 whole entry): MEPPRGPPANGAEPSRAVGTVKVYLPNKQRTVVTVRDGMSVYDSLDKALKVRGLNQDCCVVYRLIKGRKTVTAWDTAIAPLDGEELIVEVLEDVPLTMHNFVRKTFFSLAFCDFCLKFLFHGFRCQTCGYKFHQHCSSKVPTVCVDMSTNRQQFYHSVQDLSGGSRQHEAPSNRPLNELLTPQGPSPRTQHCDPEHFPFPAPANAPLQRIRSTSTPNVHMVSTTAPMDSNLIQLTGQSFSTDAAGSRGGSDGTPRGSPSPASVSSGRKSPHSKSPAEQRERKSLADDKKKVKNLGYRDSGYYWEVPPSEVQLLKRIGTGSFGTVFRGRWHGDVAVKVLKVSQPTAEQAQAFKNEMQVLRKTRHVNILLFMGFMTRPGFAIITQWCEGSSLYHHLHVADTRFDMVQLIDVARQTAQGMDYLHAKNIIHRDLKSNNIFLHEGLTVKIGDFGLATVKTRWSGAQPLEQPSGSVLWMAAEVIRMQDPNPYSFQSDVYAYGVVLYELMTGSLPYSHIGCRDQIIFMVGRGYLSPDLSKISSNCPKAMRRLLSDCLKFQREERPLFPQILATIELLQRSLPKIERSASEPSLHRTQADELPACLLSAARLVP

[4] = molecular target: Serine/threonine-protein kinase B-raf (Homo sapiens, UniProt P15056); test: Inhibition of B-Raf (unknown origin)
[5] = molecular target: Macrophage colony-stimulating factor 1 receptor (Homo sapiens, UniProt P07333); test: Inhibition of Fms (unknown origin)
[6] = molecular target: Mast/stem cell growth factor receptor Kit (Homo sapiens, UniProt P10721); test: Inhibition of Kit (unknown origin)
[7] = molecular target: Tyrosine-protein kinase BTK (Homo sapiens, UniProt Q06187); test: Inhibition of Btk (unknown origin)
[8] = molecular target: Vascular endothelial growth factor receptor 2 (Homo sapiens, UniProt P35968); test: Inhibition of Kdr (unknown origin)
[9] = molecular target: High affinity nerve growth factor receptor (Homo sapiens, UniProt P04629); test: Inhibition of TrkA (unknown origin)
[10] = molecular target: Proto-oncogene tyrosine-protein kinase Src (Homo sapiens, UniProt P12931); test: Inhibition of Src (unknown origin)
Focal adhesion kinase 1 = Focal adhesion kinase 1 (Homo sapiens, UniProt Q05397); test: Inhibition of Fak (unknown origin)
[11] = molecular target: Protein-tyrosine kinase 6 (Homo sapiens, UniProt Q13882); test: Inhibition of Brk (unknown origin)
[12] = molecular target: Tyrosine-protein kinase Yes (Homo sapiens, UniProt P07947); test: Inhibition of Yes (unknown origin)
[13] = molecular target: Tyrosine-protein kinase CSK (Homo sapiens, UniProt P41240); test: Inhibition of Csk (unknown origin)
[14] = molecular target: Tyrosine-protein kinase Lck (Homo sapiens, UniProt P06239); test: Inhibition of Lck (unknown origin)
[15] = molecular target: Tyrosine-protein kinase Lyn (Homo sapiens, UniProt P07948); test: Inhibition of Lyn (unknown origin)
Tyrosine-protein kinase Lyn, sequence (P07948 whole entry): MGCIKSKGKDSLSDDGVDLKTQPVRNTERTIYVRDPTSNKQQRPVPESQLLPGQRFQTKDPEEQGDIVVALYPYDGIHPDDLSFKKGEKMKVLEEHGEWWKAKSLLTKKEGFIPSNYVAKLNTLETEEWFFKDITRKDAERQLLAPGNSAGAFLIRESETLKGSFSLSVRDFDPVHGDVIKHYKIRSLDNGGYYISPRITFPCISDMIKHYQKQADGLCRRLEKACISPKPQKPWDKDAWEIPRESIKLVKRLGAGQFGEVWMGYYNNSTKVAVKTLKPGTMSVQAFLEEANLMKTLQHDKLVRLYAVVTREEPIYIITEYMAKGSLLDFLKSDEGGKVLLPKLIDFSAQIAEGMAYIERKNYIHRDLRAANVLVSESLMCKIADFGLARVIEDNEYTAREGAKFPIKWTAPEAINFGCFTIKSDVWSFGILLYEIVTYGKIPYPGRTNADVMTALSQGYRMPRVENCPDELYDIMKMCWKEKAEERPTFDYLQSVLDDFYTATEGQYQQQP

Serine/threonine-protein kinase B-raf (Homo sapiens, UniProt P15056), sequence (P15056 whole entry): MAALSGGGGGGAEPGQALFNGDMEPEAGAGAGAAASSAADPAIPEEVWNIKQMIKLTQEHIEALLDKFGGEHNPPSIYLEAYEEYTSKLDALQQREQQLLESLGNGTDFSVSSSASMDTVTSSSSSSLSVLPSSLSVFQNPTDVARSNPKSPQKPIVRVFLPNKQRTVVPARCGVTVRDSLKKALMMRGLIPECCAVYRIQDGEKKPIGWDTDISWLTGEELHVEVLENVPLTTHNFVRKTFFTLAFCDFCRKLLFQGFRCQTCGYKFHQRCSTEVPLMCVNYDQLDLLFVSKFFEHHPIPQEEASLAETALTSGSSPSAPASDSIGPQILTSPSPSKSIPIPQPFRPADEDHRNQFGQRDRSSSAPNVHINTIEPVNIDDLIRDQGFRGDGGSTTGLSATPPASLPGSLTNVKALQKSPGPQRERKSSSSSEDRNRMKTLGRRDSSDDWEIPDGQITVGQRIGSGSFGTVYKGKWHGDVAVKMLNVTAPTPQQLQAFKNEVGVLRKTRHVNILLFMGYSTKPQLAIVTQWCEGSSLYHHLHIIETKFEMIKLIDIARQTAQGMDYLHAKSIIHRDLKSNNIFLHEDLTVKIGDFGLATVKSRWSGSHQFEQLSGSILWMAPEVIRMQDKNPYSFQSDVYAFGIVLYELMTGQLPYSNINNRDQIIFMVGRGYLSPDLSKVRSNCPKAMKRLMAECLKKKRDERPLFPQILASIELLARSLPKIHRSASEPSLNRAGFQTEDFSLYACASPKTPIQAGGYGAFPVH
Serine/threonine-protein kinase B-raf (Homo sapiens, UniProt P15056, V600E), sequence (P15056 2-766 V600E limits assumed): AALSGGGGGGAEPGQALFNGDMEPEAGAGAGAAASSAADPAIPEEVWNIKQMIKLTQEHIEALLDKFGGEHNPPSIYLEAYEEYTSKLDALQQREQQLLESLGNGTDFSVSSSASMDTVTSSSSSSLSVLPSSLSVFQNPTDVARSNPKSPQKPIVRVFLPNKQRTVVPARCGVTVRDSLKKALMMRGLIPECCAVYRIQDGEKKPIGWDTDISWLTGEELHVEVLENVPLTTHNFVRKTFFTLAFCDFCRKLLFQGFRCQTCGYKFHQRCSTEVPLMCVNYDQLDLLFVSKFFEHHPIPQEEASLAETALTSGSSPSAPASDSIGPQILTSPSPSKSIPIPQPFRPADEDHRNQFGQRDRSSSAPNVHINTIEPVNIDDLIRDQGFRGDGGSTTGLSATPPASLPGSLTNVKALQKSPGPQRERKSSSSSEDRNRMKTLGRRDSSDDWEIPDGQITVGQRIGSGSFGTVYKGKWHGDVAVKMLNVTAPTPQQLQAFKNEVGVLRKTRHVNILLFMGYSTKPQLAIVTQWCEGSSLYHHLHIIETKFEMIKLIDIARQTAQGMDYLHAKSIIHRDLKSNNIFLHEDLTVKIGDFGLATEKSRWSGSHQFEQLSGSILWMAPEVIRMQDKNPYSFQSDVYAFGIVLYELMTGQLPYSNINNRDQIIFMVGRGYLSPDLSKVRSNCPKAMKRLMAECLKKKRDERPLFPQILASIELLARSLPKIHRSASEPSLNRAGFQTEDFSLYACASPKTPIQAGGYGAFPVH
RAF proto-oncogene serine/threonine-protein kinase, sequence (P04049 whole entry): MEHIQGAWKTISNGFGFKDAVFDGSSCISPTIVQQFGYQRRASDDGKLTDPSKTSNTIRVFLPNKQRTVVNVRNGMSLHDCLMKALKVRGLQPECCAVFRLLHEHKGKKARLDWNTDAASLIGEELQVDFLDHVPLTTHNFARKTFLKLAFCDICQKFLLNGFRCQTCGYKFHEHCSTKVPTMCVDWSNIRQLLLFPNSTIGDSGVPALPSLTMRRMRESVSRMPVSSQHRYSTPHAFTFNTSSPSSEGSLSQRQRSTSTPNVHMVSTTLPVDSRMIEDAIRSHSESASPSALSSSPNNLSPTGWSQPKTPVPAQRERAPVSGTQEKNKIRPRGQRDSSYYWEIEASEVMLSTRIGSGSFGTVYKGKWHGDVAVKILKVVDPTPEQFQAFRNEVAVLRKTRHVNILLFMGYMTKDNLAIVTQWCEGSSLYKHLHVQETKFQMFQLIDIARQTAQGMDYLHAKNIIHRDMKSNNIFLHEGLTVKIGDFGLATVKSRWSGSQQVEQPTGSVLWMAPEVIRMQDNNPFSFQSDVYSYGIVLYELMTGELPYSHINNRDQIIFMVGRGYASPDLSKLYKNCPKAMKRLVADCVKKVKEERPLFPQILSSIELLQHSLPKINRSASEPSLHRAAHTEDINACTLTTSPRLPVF
Macrophage colony-stimulating factor 1 receptor, sequence (P07333 whole entry): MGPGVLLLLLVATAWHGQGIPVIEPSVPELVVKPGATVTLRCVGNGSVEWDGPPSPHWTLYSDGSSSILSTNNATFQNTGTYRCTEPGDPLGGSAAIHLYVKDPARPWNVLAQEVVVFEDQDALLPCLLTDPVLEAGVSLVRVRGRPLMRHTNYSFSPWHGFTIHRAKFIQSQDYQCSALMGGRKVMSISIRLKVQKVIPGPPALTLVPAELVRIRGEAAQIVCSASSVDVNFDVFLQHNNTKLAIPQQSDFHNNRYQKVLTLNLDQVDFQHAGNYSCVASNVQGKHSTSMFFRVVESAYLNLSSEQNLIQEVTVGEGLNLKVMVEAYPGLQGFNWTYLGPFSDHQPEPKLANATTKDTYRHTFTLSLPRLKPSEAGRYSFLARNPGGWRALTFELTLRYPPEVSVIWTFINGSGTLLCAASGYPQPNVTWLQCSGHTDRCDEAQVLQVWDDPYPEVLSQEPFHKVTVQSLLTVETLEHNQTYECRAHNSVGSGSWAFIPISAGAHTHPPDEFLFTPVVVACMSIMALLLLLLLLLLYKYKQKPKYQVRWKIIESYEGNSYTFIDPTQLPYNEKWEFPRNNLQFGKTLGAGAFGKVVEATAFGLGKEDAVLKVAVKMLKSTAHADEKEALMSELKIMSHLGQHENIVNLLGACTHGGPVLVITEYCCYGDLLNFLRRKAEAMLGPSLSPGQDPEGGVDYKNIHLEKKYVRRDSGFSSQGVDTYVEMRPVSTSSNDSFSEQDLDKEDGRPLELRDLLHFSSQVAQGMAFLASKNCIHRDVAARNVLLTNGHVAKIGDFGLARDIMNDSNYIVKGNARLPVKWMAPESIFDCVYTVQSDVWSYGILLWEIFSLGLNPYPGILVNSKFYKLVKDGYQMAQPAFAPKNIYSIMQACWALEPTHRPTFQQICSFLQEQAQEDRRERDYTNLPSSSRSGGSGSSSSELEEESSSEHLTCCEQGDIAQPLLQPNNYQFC
Proto-oncogene tyrosine-protein kinase Src, sequence (P12931 2-536 limits assumed): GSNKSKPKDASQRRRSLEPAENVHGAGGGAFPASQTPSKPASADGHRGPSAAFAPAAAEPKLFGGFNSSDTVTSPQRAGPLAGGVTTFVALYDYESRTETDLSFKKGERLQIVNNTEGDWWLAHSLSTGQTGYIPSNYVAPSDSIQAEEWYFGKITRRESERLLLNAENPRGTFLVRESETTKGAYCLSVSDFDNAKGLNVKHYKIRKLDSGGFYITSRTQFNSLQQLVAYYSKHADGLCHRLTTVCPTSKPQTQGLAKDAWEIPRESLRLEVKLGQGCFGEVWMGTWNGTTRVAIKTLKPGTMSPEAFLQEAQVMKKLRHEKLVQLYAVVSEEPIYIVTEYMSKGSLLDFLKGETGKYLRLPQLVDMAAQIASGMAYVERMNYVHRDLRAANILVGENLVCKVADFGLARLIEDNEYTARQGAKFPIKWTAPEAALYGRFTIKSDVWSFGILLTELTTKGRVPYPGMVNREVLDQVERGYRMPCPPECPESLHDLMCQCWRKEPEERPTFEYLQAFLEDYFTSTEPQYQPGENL
High affinity nerve growth factor receptor, sequence (P04629 whole entry): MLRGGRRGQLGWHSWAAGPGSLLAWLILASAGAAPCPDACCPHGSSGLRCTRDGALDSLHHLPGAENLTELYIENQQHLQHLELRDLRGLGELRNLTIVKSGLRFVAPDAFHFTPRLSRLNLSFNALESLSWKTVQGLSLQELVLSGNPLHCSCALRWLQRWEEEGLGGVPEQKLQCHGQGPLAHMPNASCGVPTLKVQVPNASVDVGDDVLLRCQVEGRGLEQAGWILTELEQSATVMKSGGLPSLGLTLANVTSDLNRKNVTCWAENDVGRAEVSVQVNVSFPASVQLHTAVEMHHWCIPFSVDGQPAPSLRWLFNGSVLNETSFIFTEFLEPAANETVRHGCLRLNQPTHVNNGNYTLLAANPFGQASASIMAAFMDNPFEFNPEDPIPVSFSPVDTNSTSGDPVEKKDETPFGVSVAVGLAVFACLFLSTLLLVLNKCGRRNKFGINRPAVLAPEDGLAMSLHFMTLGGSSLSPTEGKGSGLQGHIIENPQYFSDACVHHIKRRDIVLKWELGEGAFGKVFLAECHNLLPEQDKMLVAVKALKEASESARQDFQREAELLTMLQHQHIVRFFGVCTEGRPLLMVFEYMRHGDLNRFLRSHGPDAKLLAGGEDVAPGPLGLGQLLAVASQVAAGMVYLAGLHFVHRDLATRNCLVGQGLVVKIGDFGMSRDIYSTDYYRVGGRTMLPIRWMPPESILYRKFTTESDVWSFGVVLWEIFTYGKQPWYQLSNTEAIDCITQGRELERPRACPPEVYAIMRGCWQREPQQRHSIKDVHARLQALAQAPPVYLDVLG

Row | IC50 [1] [µM] | IC50 [2] [µM] | IC50 [3] [µM] | IC50 [4] [µM] | Structure (SMILES) | other results
1 | ≤ 10 | ≤ 10 | ≤ 10 | ≤ 10 | CCCS(=O)(=O)Nc1ccc(F)c(C(=O)Nc2cnc3ccccc3c2)c1F | –
2 | – | – | ≤ 10 | – | CCCS(=O)(=O)Nc1ccc(Cl)c(C(=O)Nc2nnc(Cc3ccc(Cl)cc3)s2)c1F | –
3 | – | ≤ 10 | – | ≤ 10 | CCCS(=O)(=O)Nc1ccc(Cl)c(C(=O)Nc2cnc3ccccn23)c1F | –
4 | ≤ 10 | ≤ 10 | ≤ 10 | ≤ 10 | CCCS(=O)(=O)Nc1ccc(Cl)c(C(=O)Nc2cnc3ccccc3c2)c1F | –
5 | ≤ 10 | ≤ 10 | ≤ 10 | ≤ 10 | CCCS(=O)(=O)Nc1ccc(Cl)c(C(=O)Nc2ccc(NC3CC3)nc2)c1F | –
6 | ≤ 10 | ≤ 10 | ≤ 10 | ≤ 10 | CCCS(=O)(=O)Nc1ccc(Cl)c(C(=O)Nc2ccc(NCc3cccs3)nc2)c1F | –
7 | ≤ 10 | ≤ 10 | ≤ 10 | ≤ 10 | CCCS(=O)(=O)Nc1ccc(Cl)c(C(=O)Nc2ccc(NCc3ccccc3)nc2)c1F | –
8 | – | – | ≤ 10 | – | CCCS(=O)(=O)Nc1ccc(Cl)c(C(=O)Nc2cc(-c3ccc(Cl)cc3)n[nH]2)c1F | IC50 [5]: ≤ 10 µM
9 | ≤ 10 | ≤ 10 | ≤ 10 | ≤ 10 | CCCS(=O)(=O)Nc1ccc(Cl)c(C(=O)Nc2ccc(Nc3ncc(C)s3)nc2)c1F | IC50 [6]: ≤ 10 µM; IC50 [7]: ≤ 10 µM; IC50 [8]: ≤ 10 µM; IC50 [9]: ≤ 10 µM; IC50 [10]: ≤ 10 µM
10 | – | ≤ 10 | ≤ 10 | – | CCCS(=O)(=O)Nc1ccc(F)c(COc2cnc3ccccc3c2)c1F | IC50 [5]: ≤ 10 µM
11 | ≤ 10 | – | ≤ 10 | – | CCCS(=O)(=O)Nc1ccc(Cl)c(C(=O)Nc2ccc(NC3CCCC3)nc2)c1F | –
12 | – | ≤ 10 | ≤ 10 | – | CCCS(=O)(=O)Nc1ccc(F)c(NCc2cnc3ccccc3c2)c1F | –
13 | – | – | ≤ 10 | – | CCCS(=O)(=O)Nc1ccc(Cl)c(C(=O)Nc2ccc(NC(=O)N3CCCC3)nc2)c1F | –
14 | ≤ 10 | ≤ 10 | ≤ 10 | ≤ 10 | CCCS(=O)(=O)Nc1ccc(Cl)c(C(=O)Nc2cnc(NC(C)=O)nc2)c1F | –
15 | ≤ 10 | ≤ 10 | ≤ 10 | – | CCCS(=O)(=O)Nc1ccc(F)c(CNc2ccc(NC(C)=O)nc2)c1F | –
16 | ≤ 10 | ≤ 10 | ≤ 10 | – | CCCS(=O)(=O)Nc1ccc(F)c(CNc2cnc3ccccc3c2)c1F | –
17 | ≤ 10 | ≤ 10 | ≤ 10 | ≤ 10 | CCCS(=O)(=O)Nc1ccc(F)c(C(=O)Nc2ccc(NC(C)=O)nc2)c1F | –
18 | ≤ 10 | ≤ 10 | ≤ 10 | ≤ 10 | CCCS(=O)(=O)Nc1ccc(Cl)c(C(=O)Nc2ccc(NC(C)=O)nc2)c1F | IC50 (Focal adhesion kinase 1): ≤ 10 µM; IC50 [11]: ≤ 10 µM; IC50 [12]: ≤ 10 µM; IC50 [13]: ≤ 10 µM; IC50 [14]: ≤ 10 µM; IC50 [9]: ≤ 10 µM; IC50 [10]: ≤ 10 µM; IC50 [15]: ≤ 10 µM
19 | – | ≤ 10 | ≤ 10 | – | CCCS(=O)(=O)Nc1ccc(Cl)c(C(=O)Nc2ccc(NC(C)C)nc2)c1F | –
20 | ≤ 10 | ≤ 10 | ≤ 10 | – | CCCS(=O)(=O)Nc1ccc(Cl)c(C(=O)Nc2cccnc2)c1F | –
